# Reference: the supplement of paper PMC11208160
# Assay: recombinant barcode read abundance after kanamycin selection (control-corrected) (log10(CPM+1)); higher = more efficient recombination; sequences stand for … in AGTGCAGAGAAAATCGGCCAGTTTTCTCTGCCTGCAGTCCGCATGCCGT…AGATTTATGCAGCGGACTGCCTTTCTCCCAAAGTGATAAACCGGACAGTATCATGGACCGGTTTTCCCGGTAATCCGTATTTGCAAGGTTGGTTTCACT; site = the 11-nt target
# Outline: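 In E. coli, a pooled library matched targets to IS621 bridge RNA target-binding loops and was introduced alongside a donor plasmid. Cells went onto chloramphenicol/ampicillin/kanamycin with 0.1 mM IPTG or onto chloramphenicol/ampicillin LB agar as control, in duplicate. Recombination efficiency, from recombinant-junction barcodes as counts per million, is averaged and control-corrected. It is reported as log10(CPM+1).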
# 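Also: IS621 recombinase and bridge RNA in Escherichia coli cells.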
row,Sequence,recombinant barcode read abundance (log10)
1,GAGTCTTCTTGGGTTCTAACCTGTTGCCA (site CTACAGGCTGT),0.281
2,GAGTCTTCTTGGGTTCTAACCTGTTGCCA (site GAGTCTTCTTG),0.147
3,GAGTCTTCTTGGGTTCTAACCTGTTGCTA (site GAGTACTCTTA),0.0434
4,GAGTCTTCTTGGGTTCTAACCTGTTGCTA (site GAGTCTTCTTA),0.0462
5,GAGTGCTCTTGGGTTCTAACCTGTTGCAG (site GAGCGCTCTCT),0.676
6,GAGTGCTCTTGGGTTCTAACCTGTTGCAG (site GAGTGCTCTCT),1.26
7,GAGTGGACTTGGGTTCTAACCTGTTGCGT (site GACCGGACTAC),0.349
8,GAGTGGACTTGGGTTCTAACCTGTTGCGT (site GAGTGGACTAC),2.7
9,GAGTGTCCTTGGGTTCTAACCTGTTGCGA (site GAGTGTCCTTC),1.87
10,GAGTGTCCTTGGGTTCTAACCTGTTGCGA (site GTGTCTCCTTC),0.0874
11,GAGTTCACTTGGGTTCTAACCTGTTGCAG (site AGTCGTTCTAG),0.141
12,GAGTTCACTTGGGTTCTAACCTGTTGCAG (site GAGTTCACTCT),1.79
13,GAGTTGCCTTGGGTTCTAACCTGTTGCCT (site GAGTTGCCTAG),1.05
14,GAGTTGCCTTGGGTTCTAACCTGTTGCCT (site GCGTTGCCTAG),0.107
15,GAGTTGCCTTGGGTTCTAACCTGTTGCCT (site GGGTTGCCTAG),0.0448
16,GAGTTGCCTTGGGTTCTAACCTGTTGCCT (site GTGTTGCCTAG),1.59
17,GAGTTGCCTTGGGTTCTAACCTGTTGCGG (site GAGTAGCCTCC),0.0344
18,GAGTTGCCTTGGGTTCTAACCTGTTGCGG (site GAGTCGCCTCC),0.25
19,GAGTTGCCTTGGGTTCTAACCTGTTGCGG (site GAGTGGCCTCC),0.101
20,GAGTTGCCTTGGGTTCTAACCTGTTGCGG (site GAGTTGCCTCC),2.32
21,GAGTTTGCTTGGGTTCTAACCTGTTGCCT (site GAGTTTGCTAG),0.572
22,GAGTTTGCTTGGGTTCTAACCTGTTGCCT (site GCGTTTGCTAG),0.0311

row,Sequence,recombinant barcode read abundance (log10)
1,GAGTTTGCTTGGGTTCTAACCTGTTGCCT (site GGGTTTGCTAG),0.124
2,GAGTTTGCTTGGGTTCTAACCTGTTGCCT (site GTGTTTGCTAG),0.0382
3,GATACGGCTTGGGTTCTAACCTGTTGCCT (site GATACGACTAG),0.169
4,GATACGGCTTGGGTTCTAACCTGTTGCCT (site GATACGCCTAG),0
5,GATACGGCTTGGGTTCTAACCTGTTGCCT (site GATACGGCTAG),0.149
6,GATACGGCTTGGGTTCTAACCTGTTGCCT (site GATACGTCTAG),0.0137
7,GATAGGCCTTGGGTTCTAACCTGTTGCCT (site GATAGGCCTAG),0.101
8,GATAGGCCTTGGGTTCTAACCTGTTGCCT (site GTTAGGCCTAG),0.031
9,GATAGTCCTTGGGTTCTAACCTGTTGCCT (site GATAGTACTAG),0.122
10,GATAGTCCTTGGGTTCTAACCTGTTGCCT (site GATAGTCCTAG),0.322
11,GATAGTCCTTGGGTTCTAACCTGTTGCCT (site GATAGTGCTAG),0.161
12,GATAGTCCTTGGGTTCTAACCTGTTGCCT (site GATAGTTCTAG),0.159
13,GATATAGCTTGGGTTCTAACCTGTTGCGG (site GATATAGCTCC),2.31
14,GATATAGCTTGGGTTCTAACCTGTTGCGG (site GTGATAGCTCC),0.0376
15,GATCCCACTTGGGTTCTAACCTGTTGCCT (site GATCCCACTAG),1.34
16,GATCCCACTTGGGTTCTAACCTGTTGCCT (site GATGCCACTAG),0.192
17,GATCGATCTTGGGTTCTAACCTGTTGCCT (site GATCGATCTAA),0.0447
18,GATCGATCTTGGGTTCTAACCTGTTGCCT (site GATCGATCTAC),0.159
19,GATCGATCTTGGGTTCTAACCTGTTGCCT (site GATCGATCTAG),0.663
20,GATCGATCTTGGGTTCTAACCTGTTGCCT (site GATCGATCTAT),0.0541
21,GATCGATCTTGGGTTCTAACCTGTTGCTT (site GATCGATCTAA),0.349
